Earlier results on one substance are cited in patent US20250009787A1, “Nitric Oxide Containing Foam Formulation for Topical Medical Use” (NOxy Health Products, Inc., priority 2023, published 2025).

Bounds are passed on as bounds.

One data set deals with leg abscesses. The settings on record: 200 ppm NO gas, average of 8.1 hours, 14 consecutive nights.
For data set [1] the following is noted: reported to be toxic at higher concentration.

Nitric oxide [NO gas]: in the data set with leg abscesses, the lesion size entry is listed as “significantly reduced in size”. Also, in data set [1], the “toxic concentration (exposure)” value was greater than 200 ppm.
